Here are results for 13 molecules from patent publication US20150335549A1, “Oral Care Composition Containing Ionic Liquids” (COLGATE-PALMOLIVE COMPANY, priority 2012, published 2015).

For one test, the system named is A. viscosus. Nature of the test: Growth inhibition of A. viscosus over 24 hours (bacterial optical density). As to conditions: for Bacterial optical density, 4 h / Bacterial optical density, 22 h / Bacterial optical density, 24 h / Bacterial optical density, 0 h: 500 μl test sample added to 9.5 ml A. viscosus in TSB, 3 replicates; for Bacterial optical density, 0 h: initial O.D. The format is cell-based. The source says: Bacterial optical density was captured every at 0, 4, 22 and 24 hrs.

For another test, the system named is 3-day biofilm. Nature of the test: Design-of-experiments statistical analysis / D-Optimal Design prediction of 3-day biofilm removal. The note with it: glycerin 10%, propylene glycol 5%; for Percent biofilm removal: sorbitol 10%; for Percent biofilm removal if sorbitol at 20%: sorbitol 20%.
In test [1] the test system is biofilm of artificial mouth consortium (A. naeslundii, S. oralis, V. parvula, L. casei, F. nucleatum) of bacteria with S. mutans. Nature of the test: In vitro biofilm removal: 3-day old multispecies oral biofilm on saliva-coated 24 well plate, optical density at 610 nm, % reduction from water control. As to conditions: for % removal in High humectant mouthwash / % removal in Low humectant mouthwash: 3-day old biofilm; for impact on biofilm removal (in words): ingredient effect in mouthrinse formulations, 3-day old in-vitro oral biofilm.

Description for 3-day biofilm: A statistical design-of-experiments (DOE) approach was used to develop prototype mouth rinse formulations for biofilm removal. An 8 factor design was used. A mouth rinse was used a base formulation (see Table 3). […] The influence of the anti-bacterial agent cetyl pyridinium chloride (CPC) on biofilm removal was also evaluated. The sweetener sucralose and the flavor were at kept constant concentration in all the formulations.

`CC(=O)[O-].CCn1cc[n+](C)c1` [EMIM acetate]: in the test with A. viscosus, the “Bacterial optical density, 4 h” value was 0.2324; the “Bacterial optical density, 22 h” value came out at 0.7942; the “Bacterial optical density, 24 h” value is 0.8223; the “Bacterial optical density, 0 h” value is on record as 0.1482.
In the same order, the values of `CCOS(=O)(=O)[O-].CCn1cc[n+](C)c1` [EMIM ethylsulfate] are 0.2499, 0.7514, 0.7965 and 0.1482.
In the same order, the values of “1-buty1-3-methylimidazolium (BMIM) bromide” are 0.2373, 0.5994, 0.8244 and 0.1482.
With `C[N+](C)(C)CCO.O=C([O-])c1ccccc1O` [Choline salicylate, choline salicylate], in the test with A. viscosus, the “Bacterial optical density, 4 h” value is given as 0.1523; the “Bacterial optical density, 22 h” value was found to be 0.1542; the “Bacterial optical density, 24 h” value was 0.1539; the “Bacterial optical density, 0 h” value was 0.1482. Further, the “growth inhibition of A. viscosus (in words)” value with A. viscosus (formulated at 10% concentration in a mouth rinse) is recorded as “greater growth inhibition of A. viscosus than does a mouthrinse which contains 0.075% cetyl pyridinium chloride”. In the test on 3-day biofilm (choline salicylate 10, TRIS 0), the Percent biofilm removal is recorded as 48% and the “Percent biofilm removal if sorbitol at 20%” value is reported as 53%. For the same molecule, in the test with 3-day biofilm (choline salicylate 20, TRIS 0), the Percent biofilm removal is given as 61% and the “Percent biofilm removal if sorbitol at 20%” value was 66%.
In the case of `C[N+](CCO)(CCO)CCO` [Tris-HMAM, tris (2-hydroxyethyl) methylammonium methylsulfate], in the test with A. viscosus, the “Bacterial optical density, 4 h” value was 0.2605. The “Bacterial optical density, 22 h” value in the test on A. viscosus is 0.8415. Also, in the test with A. viscosus, the “Bacterial optical density, 24 h” value came to 0.9087. Also, in the test on A. viscosus, the “Bacterial optical density, 0 h” value is 0.1482. Moreover, the Percent biofilm removal in the test with 3-day biofilm (choline salicylate 0, TRIS 10) is 47%; with 3-day biofilm (choline salicylate 0, TRIS 20), 60%. The “Percent biofilm removal if sorbitol at 20%” value in the test on 3-day biofilm (choline salicylate 0, TRIS 10) is recorded as 52%; in the test on 3-day biofilm (choline salicylate 0, TRIS 20) it was 65%. For the same molecule, the “% removal in High humectant mouthwash” value in test [1] (1% Tris-HMAM) was 39.0%; in test [1] (2.5% Tris-HMAM) it was 50.5%; in test [1] (5% Tris-HMAM), 53.9%; in test [1] (10% Tris-HMAM), 57.7%; in test [1] (20% Tris-HMAM) it was 71.1%; in test [1] (40% Tris-HMAM) it was 73.2%. Moreover, the “% removal in Low humectant mouthwash” value turned out to be 25.6% in test [1] (1% Tris-HMAM); 28.2% in test [1] (2.5% Tris-HMAM); 30.9% in test [1] (5% Tris-HMAM); 46.8% in test [1] (10% Tris-HMAM); 57.3% in test [1] (20% Tris-HMAM); 67.1% in test [1] (40% Tris-HMAM). The “impact on biofilm removal (in words)” value in test [1] is on record as “enhances biofilm removal”.
For the molecule `C[N+](C)(C)CCO.[Cl-]` [Choline chloride], in the test on A. viscosus, the “Bacterial optical density, 4 h” value worked out at 0.2445; the “Bacterial optical density, 22 h” value is listed as 1.0236; the “Bacterial optical density, 24 h” value was 1.0674; the “Bacterial optical density, 0 h” value stood at 0.1482.
The like results for “1-ethy1-3-methylimidazolium (EMIM) bromide” were, in that order, 0.2216, 0.7598, 0.8533 and 0.1482.
For `OC[C@@H](O)[C@@H](O)[C@H](O)[C@@H](O)CO` [sorbitol], in the test with 3-day biofilm (20% sorbitol in the formulations), the “increase in biofilm removal” value was roughly 5%. In addition, in test [1], the “impact on biofilm removal (in words)” value is given as “increases the percent of biofilm removal”.
As for “1,2,4-trimethyl-pyrazolium methylsulfate”, in the test with A. viscosus, the “Bacterial optical density, 4 h” value is recorded as 0.1978; the “Bacterial optical density, 22 h” value is on record as 0.8519; the “Bacterial optical density, 24 h” value is recorded as 1.0042; the “Bacterial optical density, 0 h” value is reported as 0.1482.
In the same order, the values of Choline acetate are 0.2559, 0.9480, 1.0385 and 0.1482.
In the same order, the values of `C=CCn1cc[n+](C)c1.[Cl-]` [1-ally1-3-methylimidazolium (AMIM) chloride] are 0.2265, 0.7091, 0.8440 and 0.1482.
With `OCC(O)CO` [glycerin], in test [1], the “impact on biofilm removal (in words)” value was “increases the percent of biofilm removal”.
Same read-out and setting: the entry for `CC(O)CO` (stereo not drawn) [propylene glycol] is “increases the percent of biofilm removal”.
